Measurements published in patent publication US20050043307A1, “Pyridazine, pyrimidine and pyrazine ethyne compounds” (priority 1999, published 2005).

| melting point | SMILES |
| --- | --- |
| 69 to 70 °C | CC(C)(O)C#Cc1nccs1 [Example 2, 2-Methyl-4-(1,3-thiazol-2-yl)-3-butyn-2-ol] |
| 124 to 125 °C | Clc1cncc(C#Cc2nccs2)c1 [Example 6, 3-Chloro-5-(1,3-thiazol-2-ylethynyl)pyridine] |
